Data on 13 compounds can be found in patent US9234006B2, “Compounds” (Novacta Biosystems Limited, priority 2011, dated 2016).

*1 amine or outer side, *2 acyl side, *3 side chain or, on linkers, in order; H or OH if unused. Where a SMILES comes first, the peptide text is derived from it. Bridges are numbered along the chain shown (N, C = ends). [ ]: non-standard residue; d: D form. The star is where a group is joined. ξ: configuration not given here. Achc(trans-4) = O=C([C@H]1CC[C@H](N[*:1])CC1)[*:2]; GABA(4S-Me) = C[C@@H](CCC(=O)[*:2])N[*:1]; Octanoyl(3-OH) = CCCCCC(O)CC(=O)*; NMeGABA = CN(CCCC(=O)[*:2])[*:1]; Thr(3ξ) = CC(O)[C@H](N)C(=O)O; Propanoyl(3-OH) = O=C(CCO)*; X10 = O=C(CC[C@@H]1CCCN1)*; ξAoc(2) = CCCCCCC(N)C(=O)O; NH(2-ClPh) = Clc1ccccc1N*; Octanoyl = CCCCCCCC(=O)*; Dab = NCC[C@H](N)C(=O)O; X7 = NC1CCC(C(=O)*)CC1; X1 = CCCCCCC(O)C(=O)*; CO = O=C([*:1])[*:2]; GABA = NCCCC(=O)O; X9 = O=C(CCCCCO)*

What all share (assay): MIC susceptibility testing, broth microdilution in CaMHB
The subject of assay [1] is P. aeruginosa ATCC27853. Type of assay: cell-based, Pseudomonas aeruginosa. To be noted: Table 4A, different batches of cation-adjusted Muller-Hinton broth. On the procedure: (§1) To evaluate the potency and spectrum of the compounds, susceptibility testing was performed against four strains of each of the four Gram negative pathogens, Escherichia coli, Pseudomonas aeruginosa, Klebsiella pneumoniae and Acinetobacter baumannii.
(§2) The day before testing, 3 to 4 colonies were picked from fresh Mueller-Hinton Agar (MHA) plate and transferred into 10 mL of Cation adjusted MHB (CaMHB). Cultures were incubated at 37° C. 250 rpm for 18-20 hours before being diluted 100-fold in fresh CaMHB. The subcultures were grown further until the OD600 reached 0.2-0.3 corresponding to […]. The actively growing cultures were diluted 100-fold in fresh medium and used for the inoculum.
(§3) The assays were performed in duplicate.
(§4) Data was obtained under similar conditions to Table 4 except that different batches of cation-adjusted Muller-Hinton broth were used. The MIC values for these compounds are compared with those values obtained for Polymyxin B, Colistin Sulphate, CB-182,804 and NAB739 (as the TFA salt). CB-182,804 is a polymyxin decapeptide derivative with an aryl urea substituent at the N-terminus, which has been claimed to have lower toxicity than Polymyxin B (compound 5 in WO 2010/075416. See page 37). NAB739 has been described previously by Vaara et al.

The subject of assay [2] is K. pneumoniae ATCC 4352. The class given is cell-based, Klebsiella pneumoniae. The conditions noted are these: K. pneumoniae ATCC4352; Table 4A, different batches of cation-adjusted Muller-Hinton broth. On the procedure:
as §1, §2, §3, §4

The subject of assay [3] is A. baumannii ATCC19606. Type of assay: cell-based, Acinetobacter baumannii. The conditions noted are these: Table 4A, different batches of cation-adjusted Muller-Hinton broth. How it is done:
as §1, §2, §3, §4

The subject of assay [4] is E. coli ATCC25922. The class given is cell-based, Escherichia coli. The conditions noted are these: Table 4A, different batches of cation-adjusted Muller-Hinton broth. On the procedure:
as §1, §2, §3, §4

For `CCCCCCC(N)C(=O)N[C@H](C(=O)N[C@@H](CCN)C(=O)N[C@H]1CCNC(=O)[C@H](C(C)O)NC(=O)[C@H](CCN)NC(=O)[C@H](CCN)NC(=O)[C@H](CC(C)C)NC(=O)[C@@H](Cc2ccccc2)NC(=O)[C@H](CCN)NC1=O)C(C)O` (stereo partly drawn) [Example 35, 2-(R,S)-2-Amino octanoyl polymyxin B nonapeptide] (H-[ξAoc(2)][Thr(3ξ)][Dab][Dab][Dab][dF]L[Dab][Dab][Thr(3ξ)]; lactam 4-C), the MIC in assay [1] is listed as 0.25 micrograms/mL; in assay [2], 1 micrograms/mL; in assay [3] it was 2 micrograms/mL.
Turning to `CC(C)C[C@@H]1NC(=O)[C@@H](Cc2ccccc2)NC(=O)[C@H](CCN)NC(=O)[C@@H](NC(=O)[C@H](CCN)NC(=O)[C@@H](NC(=O)CC[C@@H]2CCCN2)C(C)O)CCNC(=O)[C@H](C(C)O)NC(=O)[C@H](CCN)NC(=O)[C@H](CCN)NC1=O` (stereo partly drawn) [Example 30, 3-(S)-(1-pyrrolidin-2-yl)-propionyl polymyxin B nonapeptide] (X10-[Thr(3ξ)][Dab][Dab][Dab][dF]L[Dab][Dab][Thr(3ξ)]; lactam 3-C), the MIC in assay [4] came out at 16 micrograms/mL; in assay [1] it was 0.125 micrograms/mL; in assay [2], 1 micrograms/mL; in assay [3], 8 micrograms/mL.
Taken in the same sequence, the figures for `CCCCCC(O)CC(=O)N[C@H](C(=O)N[C@@H](CCN)C(=O)N[C@H]1CCNC(=O)[C@H](C(C)O)NC(=O)[C@H](CCN)NC(=O)[C@H](CCN)NC(=O)[C@H](CC(C)C)NC(=O)[C@@H](Cc2ccccc2)NC(=O)[C@H](CCN)NC1=O)C(C)O` (stereo partly drawn) [Example 17, 3-(R,S)-3-Hydroxyoctanoyl polymyxin B nonapeptide] ({Octanoyl(3-OH)}-[Thr(3ξ)][Dab][Dab][Dab][dF]L[Dab][Dab][Thr(3ξ)]; lactam 3-C) were 8 micrograms/mL, 2 micrograms/mL, 8 micrograms/mL and 4 micrograms/mL.
With `CC(C)C[C@@H]1NC(=O)[C@@H](Cc2ccccc2)NC(=O)[C@H](CCN)NC(=O)[C@@H](NC(=O)[C@H](CCN)NC(=O)[C@@H](NC(=O)CCCCCO)C(C)O)CCNC(=O)[C@H](C(C)O)NC(=O)[C@H](CCN)NC(=O)[C@H](CCN)NC1=O` (some centres unmarked) [Example 21, 6-Hydroxyhexanoyl polymyxin B nonapeptide] (X9-[Thr(3ξ)][Dab][Dab][Dab][dF]L[Dab][Dab][Thr(3ξ)]; lactam 3-C), the MIC in assay [4] is 32 micrograms/mL; in assay [1] it was 1 micrograms/mL; in assay [2], 32 micrograms/mL; in assay [3], greater than 32 micrograms/mL.
Take `CCCCCCCC(=O)N[C@H](C(=O)N[C@H](CO)C(=O)N[C@H]1CCNC(=O)[C@H]([C@@H](C)O)NC(=O)[C@H](CCN)NC(=O)[C@H](CCN)NC(=O)[C@H](CC(C)C)NC(=O)[C@@H](Cc2ccccc2)NC(=O)[C@H](CCN)NC1=O)[C@@H](C)O` [NAB739, reference compound] (Octanoyl-T[dS][Dab][Dab][dF]L[Dab][Dab]T; lactam 3-C; N-terminus assumed): the MIC in assay [4] is recorded as 2 micrograms/mL; in assay [1], 1 micrograms/mL; in assay [2], 2 micrograms/mL; in assay [3], 1 micrograms/mL.
`CCCCCCC(O)C(=O)N[C@H](C(=O)N[C@@H](CCN)C(=O)N[C@H]1CCNC(=O)[C@H](C(C)O)NC(=O)[C@H](CCN)NC(=O)[C@H](CCN)NC(=O)[C@H](CC(C)C)NC(=O)[C@@H](CC(C)C)NC(=O)[C@H](CCN)NC1=O)C(C)O` (stereo partly drawn) [Example 26, 2-(R,S)-2-Hydroxyoctanoyl polymyxin E nonapeptide] (X1-[Thr(3ξ)][Dab][Dab][Dab][dL]L[Dab][Dab][Thr(3ξ)]; lactam 3-C): the MIC was determined as 8 micrograms/mL in assay [4], 4 micrograms/mL in assay [1], 8 micrograms/mL in assay [2] and 16 micrograms/mL in assay [3].
As for `CC(C)C[C@@H]1NC(=O)[C@@H](Cc2ccccc2)NC(=O)[C@H](CCN)NC(=O)[C@@H](NC(=O)[C@H](CCN)NC(=O)[C@@H](NC(=O)C2CCC(N)CC2)C(C)O)CCNC(=O)[C@H](C(C)O)NC(=O)[C@H](CCN)NC(=O)[C@H](CCN)NC1=O` (stereo partly drawn) [Example 27, cis-4-aminocyclohexane carbonyl polymyxin B nonapeptide] (X7-[Thr(3ξ)][Dab][Dab][Dab][dF]L[Dab][Dab][Thr(3ξ)]; lactam 3-C), the MIC is reported as 2 micrograms/mL in assay [4], 0.125 micrograms/mL in assay [1], 0.125 micrograms/mL in assay [2] and 0.5 micrograms/mL in assay [3].
As for `CNCCCC(=O)N[C@H](C(=O)N[C@@H](CCN)C(=O)N[C@H]1CCNC(=O)[C@H](C(C)O)NC(=O)[C@H](CCN)NC(=O)[C@H](CCN)NC(=O)[C@H](CC(C)C)NC(=O)[C@@H](Cc2ccccc2)NC(=O)[C@H](CCN)NC1=O)C(C)O` (some centres unmarked) [Example 23, 4-(N-methylamino)-butanoyl polymyxin B nonapeptide] (NMeGABA-[Thr(3ξ)][Dab][Dab][Dab][dF]L[Dab][Dab][Thr(3ξ)]; lactam 3-C), the MIC turned out to be 0.5 micrograms/mL in assay [4], 0.25 micrograms/mL in assay [1], 0.5 micrograms/mL in assay [2] and 8 micrograms/mL in assay [3].
For the compound `CC(C)C[C@@H]1NC(=O)[C@@H](Cc2ccccc2)NC(=O)[C@H](CCN)NC(=O)[C@@H](NC(=O)[C@H](CCN)NC(=O)[C@@H](NC(=O)[C@H](CCN)NC(=O)Nc2ccccc2Cl)[C@@H](C)O)CCNC(=O)[C@H]([C@@H](C)O)NC(=O)[C@H](CCN)NC(=O)[C@H](CCN)NC1=O` [CB-182,804, reference compound] ({NH(2-ClPh)-CO}-[Dab]T[Dab][Dab][Dab][dF]L[Dab][Dab]T; lactam 4-C; N-terminus assumed), the MIC in assay [4] is on record as 2 micrograms/mL; in assay [1], 1 micrograms/mL; in assay [3], 0.5 micrograms/mL.
As for `CC(C)C[C@@H]1NC(=O)[C@@H](Cc2ccccc2)NC(=O)[C@H](CCN)NC(=O)[C@@H](NC(=O)[C@H](CCN)NC(=O)[C@@H](NC(=O)[C@H]2CC[C@H](N)CC2)C(C)O)CCNC(=O)[C@H](C(C)O)NC(=O)[C@H](CCN)NC(=O)[C@H](CCN)NC1=O` (stereo partly drawn) [Example 24, trans-4-aminocyclohexanecarbonyl polymyxin B nonapeptide] ({Achc(trans-4)}-[Thr(3ξ)][Dab][Dab][Dab][dF]L[Dab][Dab][Thr(3ξ)]; lactam 3-C), the MIC in assay [4] came to 2 micrograms/mL; in assay [1], 0.125 micrograms/mL; in assay [2] it was 0.125 micrograms/mL; in assay [3], 2 micrograms/mL.
As for `CC(C)C[C@@H]1NC(=O)[C@@H](Cc2ccccc2)NC(=O)[C@H](CCN)NC(=O)[C@@H](NC(=O)[C@H](CCN)NC(=O)[C@@H](NC(=O)CCO)C(C)O)CCNC(=O)[C@H](C(C)O)NC(=O)[C@H](CCN)NC(=O)[C@H](CCN)NC1=O` (some centres unmarked) [Example 33, 3-Hydroxypropanoyl polymyxin B nonapeptide] ({Propanoyl(3-OH)}-[Thr(3ξ)][Dab][Dab][Dab][dF]L[Dab][Dab][Thr(3ξ)]; lactam 3-C), the MIC in assay [4] is listed as greater than 32 micrograms/mL; in assay [1] it was 0.5 micrograms/mL; in assay [2], 4 micrograms/mL; in assay [3], greater than 32 micrograms/mL.
Turning to `CC(C)C[C@@H]1NC(=O)[C@@H](Cc2ccccc2)NC(=O)[C@H](CCN)NC(=O)[C@@H](NC(=O)[C@H](CCN)NC(=O)[C@@H](NC(=O)CC[C@H](C)N)C(C)O)CCNC(=O)[C@H](C(C)O)NC(=O)[C@H](CCN)NC(=O)[C@H](CCN)NC1=O` (stereo partly drawn) [Example 31, 4-(S)-aminopentanoyl polymyxin B nonapeptide] ({GABA(4S-Me)}-[Thr(3ξ)][Dab][Dab][Dab][dF]L[Dab][Dab][Thr(3ξ)]; lactam 3-C), the MIC in assay [4] is greater than 32 micrograms/mL; in assay [1], 0.25 micrograms/mL; in assay [2], 0.5 micrograms/mL; in assay [3], 8 micrograms/mL.
Taken in the same sequence, the figures for `CC(C)C[C@@H]1NC(=O)[C@@H](CC(C)C)NC(=O)[C@H](CCN)NC(=O)[C@@H](NC(=O)[C@H](CCN)NC(=O)[C@@H](NC(=O)CCCN)C(C)O)CCNC(=O)[C@H](C(C)O)NC(=O)[C@H](CCN)NC(=O)[C@H](CCN)NC1=O` (stereo partly drawn) [Example 25, 4-aminobutanoyl polymyxin E nonapeptide] (H-[GABA][Thr(3ξ)][Dab][Dab][Dab][dL]L[Dab][Dab][Thr(3ξ)]; lactam 4-C) were 8 micrograms/mL, 4 micrograms/mL, 4 micrograms/mL and 16 micrograms/mL.
